From US8053553B2, “Targeting host proteinases as a therapeutic strategy against viral and bacterial pathogens” (Socpra Sciences Sante Et Humaines, priority 2007, dated 2011)
Where two headings read alike, the source gives them in different places. Non-standard residues stand in square brackets, D forms with d. Residues, ends and D or L forms follow the SMILES beside them. Sar = CNCC(=O)O

Target: T1, furin (Homo sapiens, UniProt P09958)
T1 construct: made in house; host or cells: Drosophila S2 cells (Invitrogen expression system)
Assay: biochemical
Conditions: furin, Pyr-RTKR-AMC substrate, read-out: Ki

[1] = alanine scanning mutagenesis of the H5 furin cleavage sequence (Table 2)
[2] = optimization of the inhibitory peptides (Table 3)

T1 sequence (P09958 108-794 limits assumed): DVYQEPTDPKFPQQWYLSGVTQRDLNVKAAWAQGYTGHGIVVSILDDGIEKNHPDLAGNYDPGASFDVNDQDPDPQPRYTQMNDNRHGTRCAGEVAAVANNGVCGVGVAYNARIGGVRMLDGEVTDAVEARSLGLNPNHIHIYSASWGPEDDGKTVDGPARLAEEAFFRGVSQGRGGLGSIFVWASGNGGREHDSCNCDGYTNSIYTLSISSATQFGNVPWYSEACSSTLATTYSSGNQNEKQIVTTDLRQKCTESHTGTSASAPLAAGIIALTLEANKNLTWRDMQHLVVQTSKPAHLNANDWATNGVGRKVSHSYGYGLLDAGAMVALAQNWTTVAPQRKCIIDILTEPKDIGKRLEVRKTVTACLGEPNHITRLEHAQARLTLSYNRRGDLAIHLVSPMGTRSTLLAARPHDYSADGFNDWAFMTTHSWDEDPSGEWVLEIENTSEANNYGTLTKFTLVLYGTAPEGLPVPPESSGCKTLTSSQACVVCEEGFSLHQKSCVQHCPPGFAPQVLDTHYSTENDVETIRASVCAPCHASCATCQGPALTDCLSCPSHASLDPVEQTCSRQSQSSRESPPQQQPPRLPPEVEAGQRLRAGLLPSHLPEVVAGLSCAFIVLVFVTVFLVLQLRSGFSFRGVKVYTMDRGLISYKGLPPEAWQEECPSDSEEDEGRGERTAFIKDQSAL

Compound	Ki [1] [nM]	Ki [2] [nM]
C[C@H](NC(=O)[C@H](C)NC(=O)[C@@H]1CCCN1C(=O)[C@@H](N)[C@@H](C)O)C(=O)N[C@@H](CCCNC(=N)N)C(=O)N[C@@H](CCCNC(=N)N)C(=O)N[C@@H](CCCNC(=N)N)C(=O)N[C@@H](CCCCN)C(=O)N[C@@H](CCCCN)C(=O)N[C@@H](CCCNC(=N)N)C(=O)NCC(N)=O (H-TPAARRRKKRG-NH2)	> 100	
C[C@H](NC(=O)[C@H](CCCCN)NC(=O)[C@H](CCCNC(=N)N)NC(=O)[C@H](CCCNC(=N)N)NC(=O)[C@H](CCCNC(=N)N)NC(=O)[C@H](CCC(=O)O)NC(=O)[C@H](CCCNC(=N)N)NC(=O)[C@@H]1CCCN1C(=O)[C@@H](N)[C@@H](C)O)C(=O)N[C@@H](CCCNC(=N)N)C(N)=O (H-TPRERRRKAR-NH2)	> 100	
CSCC[C@H](NC(=O)[C@H](CCCNC(=N)N)NC(=O)[C@H](CCCCN)NC(=O)[C@H](CCCCN)NC(=O)[C@H](CCCNC(=N)N)NC(=O)[C@H](CCCNC(=N)N)NC(=O)[C@H](CCCNC(=N)N)NC(=O)[C@H](C)NC(=O)[C@H](CCCNC(=N)N)NC(=O)[C@H](CCC(N)=O)NC(=O)[C@@H]1CCCN1C(=O)[C@@H](N)[C@@H](C)O)C(N)=O (H-TPQRARRRKKRM-NH2)		58
C[C@H](NC(=O)[C@H](CCCNC(=N)N)NC(=O)[C@H](CCC(N)=O)NC(=O)[C@@H]1CCCN1C(=O)[C@@H](N)[C@@H](C)O)C(=O)N[C@@H](CCCNC(=N)N)C(=O)N[C@@H](CCCNC(=N)N)C(=O)N[C@@H](CCCNC(=N)N)C(=O)N[C@@H](CCCCN)C(=O)N[C@@H](CCCCN)C(=O)N[C@@H](CCCNC(=N)N)C(=O)N[C@@H](Cc1c[nH]c2ccccc12)C(N)=O (H-TPQRARRRKKRW-NH2)		34
C[C@H](NC(=O)[C@H](CCCNC(=N)N)NC(=O)[C@H](CCCNC(=N)N)NC(=O)[C@H](CCCNC(=N)N)NC(=O)[C@H](CCC(=O)O)NC(=O)[C@H](CCCNC(=N)N)NC(=O)[C@@H]1CCCN1C(=O)[C@@H](N)[C@@H](C)O)C(=O)N[C@@H](CCCCN)C(=O)N[C@@H](CCCNC(=N)N)C(=O)N(C)CC(N)=O (H-TPRERRRAKR[Sar]-NH2)	> 100	
C[C@H](NC(=O)[C@H](C)NC(=O)[C@@H](N)[C@@H](C)O)C(=O)N[C@@H](CCC(=O)O)C(=O)N[C@@H](CCCNC(=N)N)C(=O)N[C@@H](CCCNC(=N)N)C(=O)N[C@@H](CCCNC(=N)N)C(=O)N[C@@H](CCCCN)C(=O)N[C@@H](CCCCN)C(=O)N[C@@H](CCCNC(=N)N)C(N)=O (H-TAAERRRKKR-NH2)	> 100	
C[C@H](NC(=O)[C@H](CCCNC(=N)N)NC(=O)[C@H](CCCNC(=N)N)NC(=O)[C@H](CCC(=O)O)NC(=O)[C@H](CCCNC(=N)N)NC(=O)[C@@H]1CCCN1C(=O)[C@@H](N)[C@@H](C)O)C(=O)N[C@@H](CCCCN)C(=O)N[C@@H](CCCCN)C(=O)N[C@@H](CCCNC(=N)N)C(N)=O (H-TPRERRAKKR-NH2)	> 100	
C[C@H](NC(=O)[C@H](CCCNC(=N)N)NC(=O)[C@H](CCC(N)=O)NC(=O)[C@@H]1CCCN1C(=O)[C@@H](N)[C@@H](C)O)C(=O)N[C@@H](CCCNC(=N)N)C(=O)N[C@@H](CCCNC(=N)N)C(=O)N[C@@H](CCCNC(=N)N)C(=O)N[C@@H](CCCCN)C(=O)N[C@@H](CCCCN)C(=O)N[C@@H](CCCNC(=N)N)C(=O)N[C@@H](CC(N)=O)C(N)=O (H-TPQRARRRKKRN-NH2)		> 100
C[C@H](N)C(=O)N1CCC[C@H]1C(=O)N[C@@H](CCCNC(=N)N)C(=O)N[C@@H](CCC(=O)O)C(=O)N[C@@H](CCCNC(=N)N)C(=O)N[C@@H](CCCNC(=N)N)C(=O)N[C@@H](CCCNC(=N)N)C(=O)N[C@@H](CCCCN)C(=O)N[C@@H](CCCCN)C(=O)N[C@@H](CCCNC(=N)N)C(=O)NCC(N)=O (H-APRERRRKKRG-NH2)	> 100	
C[C@H](NC(=O)[C@H](CCCNC(=N)N)NC(=O)[C@H](CCC(N)=O)NC(=O)[C@@H]1CCCN1C(=O)[C@@H](N)[C@@H](C)O)C(=O)N[C@@H](CCCNC(=N)N)C(=O)N[C@@H](CCCNC(=N)N)C(=O)N[C@@H](CCCNC(=N)N)C(=O)N[C@@H](CCCCN)C(=O)N[C@@H](CCCCN)C(=O)N[C@@H](CCCNC(=N)N)C(=O)N[C@@H](CS)C(N)=O (H-TPQRARRRKKRC-NH2)		> 100
C[C@@H](O)[C@H](N)C(=O)N1CCC[C@H]1C(=O)N[C@@H](CCC(N)=O)C(=O)N[C@@H](CCCNC(=N)N)C(=O)N[C@@H](CC1CCCCC1)C(=O)N[C@@H](CCCNC(=N)N)C(=O)N[C@@H](CCCNC(=N)N)C(=O)N[C@@H](CCCNC(=N)N)C(=O)N[C@@H](CCCCN)C(=O)N[C@@H](CCCCN)C(=O)N[C@@H](CCCNC(=N)N)C(=O)NCC(N)=O [TPQR7RRRKKRG]		> 100
C[C@H](NC(=O)[C@H](CCCNC(=N)N)NC(=O)[C@H](CCC(N)=O)NC(=O)[C@@H]1CCCN1C(=O)[C@@H](N)[C@@H](C)O)C(=O)N[C@@H](CCCNC(=N)N)C(=O)N[C@@H](CCCNC(=N)N)C(=O)N[C@@H](CCCNC(=N)N)C(=O)N[C@@H](CCCCN)C(=O)N[C@@H](CCCCN)C(=O)N[C@@H](CCCNC(=N)N)C(=O)N[C@@H](Cc1c[nH]cn1)C(N)=O (H-TPQRARRRKKRH-NH2)		> 100
C[C@H](NC(=O)[C@H](C)NC(=O)[C@H](CCCNC(=N)N)NC(=O)[C@H](CCCNC(=N)N)NC(=O)[C@H](CCCNC(=N)N)NC(=O)[C@H](CCC(=O)O)NC(=O)[C@H](CCCNC(=N)N)NC(=O)[C@@H]1CCCN1C(=O)[C@@H](N)[C@@H](C)O)C(=O)N[C@@H](CCCNC(=N)N)C(N)=O	> 100	
CC(C)[C@H](NC(=O)[C@H](CCCNC(=N)N)NC(=O)[C@H](CCCCN)NC(=O)[C@H](C)NC(=O)[C@H](C)NC(=O)[C@H](CCCNC(=N)N)NC(=O)[C@H](CCCNC(=N)N)NC(=O)[C@H](CCC(=O)O)NC(=O)[C@H](CCCNC(=N)N)NC(=O)[C@@H]1CCCN1C(=O)[C@@H](N)[C@@H](C)O)C(N)=O (H-TPRERRAAKRV-NH2)	> 100	
CSC[C@H](NC(=O)[C@H](CCCNC(=N)N)NC(=O)[C@H](CCCCN)NC(=O)[C@H](CCCCN)NC(=O)[C@H](CCCNC(=N)N)NC(=O)[C@H](CCCNC(=N)N)NC(=O)[C@H](CCCNC(=N)N)NC(=O)[C@H](C)NC(=O)[C@H](CCCNC(=N)N)NC(=O)[C@H](CCC(N)=O)NC(=O)[C@@H]1CCCN1C(=O)[C@@H](N)[C@@H](C)O)C(N)=O (H-TPQRARRRKKRC(Me)-NH2)		93
C[C@H](NC(=O)[C@H](CCCNC(=N)N)NC(=O)[C@H](CCC(N)=O)NC(=O)[C@@H]1CCCN1C(=O)[C@@H](N)[C@@H](C)O)C(=O)N[C@@H](CCCNC(=N)N)C(=O)N[C@@H](CCCNC(=N)N)C(=O)N[C@@H](CCCNC(=N)N)C(=O)N[C@@H](CCCCN)C(=O)N[C@@H](CCCCN)C(=O)N[C@@H](CCCNC(=N)N)C(=O)N1CCC[C@H]1C(N)=O (H-TPQRARRRKKRP-NH2)		> 100
C[C@@H](O)[C@H](N)C(=O)N1CCC[C@H]1C(=O)N[C@@H](CCC(N)=O)C(=O)N[C@@H](CCCNC(=N)N)C(=O)N[C@H](C(=O)N[C@@H](CCCNC(=N)N)C(=O)N[C@@H](CCCNC(=N)N)C(=O)N[C@@H](CCCNC(=N)N)C(=O)N[C@@H](CCCCN)C(=O)N[C@@H](CCCCN)C(=O)N[C@@H](CCCNC(=N)N)C(=O)NCC(N)=O)[C@@H](C)O (H-TPQRTRRRKKRG-NH2)		> 100
CC(C)[C@H](NC(=O)[C@H](CCCNC(=N)N)NC(=O)[C@H](CCC(N)=O)NC(=O)[C@@H]1CCCN1C(=O)[C@@H](N)[C@@H](C)O)C(=O)N[C@@H](CCCNC(=N)N)C(=O)N[C@@H](CCCNC(=N)N)C(=O)N[C@@H](CCCNC(=N)N)C(=O)N[C@@H](CCCCN)C(=O)N[C@@H](CCCCN)C(=O)N[C@@H](CCCNC(=N)N)C(=O)NCC(N)=O (H-TPQRVRRRKKRG-NH2)		> 100
